According to PubChem BioAssay AID624278 (The Scripps Research Institute Molecular Screening Center, 2012):
Calls of active or inactive are those of the source.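 Rule for the calls: active = target gene mRNA expression lowered over 20% below the solvent-only control in each of three panels; inactive = the rest.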

How the values were obtained:
Assay in all cases: IL-17 and IL-23R mRNA reduction by inverse agonists – cell-based, qPCR, endogenous IL-17 and IL-23R, fluorescence, mechanism study for RORC inverse agonist project, late-stage follow-up (AID 624278)
[1] = system: IL-23R; details: EL-4 murine T cells, IL-17/IL-23R qPCR, PMA/ionomycin, at 5 µM, stronger effect = lower value
[2] = target: Interleukin-17A (Mus musculus) (UniProt Q62386); details: EL-4 murine T cells, IL-17/IL-23R qPCR, PMA/ionomycin; IL-17; Protein
[3] = system: IL-17; details: EL-4 murine T cells, IL-17/IL-23R qPCR, PMA/ionomycin, at 5 µM, stronger effect = lower value

Chain of Interleukin-17A (Mus musculus) (Q62386 whole entry, looked up): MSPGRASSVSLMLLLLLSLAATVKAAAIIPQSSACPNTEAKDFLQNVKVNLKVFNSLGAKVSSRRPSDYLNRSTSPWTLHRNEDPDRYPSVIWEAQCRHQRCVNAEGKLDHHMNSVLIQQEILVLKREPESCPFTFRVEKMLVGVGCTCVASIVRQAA

## OC(c1ccc(-c2ccc(CN3CCN(Cc4ccncc4)CC3)cc2)c(F)c1)(C(F)(F)F)C(F)(F)F
[1]
  relative gene expression: 0.2
[2]
  outcome: active
[3]; IL-17 protein level
  relative protein level: 0.6
[3]; mRNA
  relative gene expression: 0.1
